From patent US10472661B2, “Method for increasing glycosylation of a composition comprising steviol glycosides” (DSM IP ASSETS B.V., priority 2014, dated 2019)

Legend:
UGT3-SEQ ID NO: 74 = target: T1, UGT3-SEQ ID NO: 74 (Stevia rebaudiana, UniProt Q6VAA6); assay type: biochemical; conditions: CFE 0.05 mg/mL, UDP-glucose 1 mM
T1 construct: made in house; host or cells: Saccharomyces cerevisiae; unpurified soluble cell extract (CFE) from bead-lysed biomass
T1 sequence (Q6VAA6 1-460): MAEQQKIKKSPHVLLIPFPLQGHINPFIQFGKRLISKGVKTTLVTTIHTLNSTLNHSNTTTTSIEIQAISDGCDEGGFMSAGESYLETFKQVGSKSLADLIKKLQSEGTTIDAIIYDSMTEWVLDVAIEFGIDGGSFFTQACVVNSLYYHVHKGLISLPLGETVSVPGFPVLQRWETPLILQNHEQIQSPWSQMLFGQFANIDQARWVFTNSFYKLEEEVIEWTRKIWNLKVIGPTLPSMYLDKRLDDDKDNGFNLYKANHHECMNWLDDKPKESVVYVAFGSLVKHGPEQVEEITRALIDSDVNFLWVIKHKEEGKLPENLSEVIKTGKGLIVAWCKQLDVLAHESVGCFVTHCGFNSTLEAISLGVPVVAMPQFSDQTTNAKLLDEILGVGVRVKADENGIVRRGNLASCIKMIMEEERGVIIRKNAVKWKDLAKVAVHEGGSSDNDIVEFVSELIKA

[1] = suitable for use in carbonated beverages and many other foods; cited from earlier work
[2] = test system: CFE obtained from the Yarrowia lipolitica steviol glycoside producing strains; assay: bioconversion of rebaudiosideA with CFE of Yarrowia lipolitica steviol glycoside producing strains, UDP-glucose, LC-MS; assay type: biochemical; conditions: rebaudiosideA 100-500 μM; CFE 0.1 mg/mL; UDP-glucose 1 mM; products rebaudioside D and rebaudioside M
Excerpt: Methods to obtain yeast strains expressing constructs encoding the steviol glycoside production pathway are described in WO2013/110673 and WO2015/007748. Here, different Yarrowia lipolitica strains were used: the parent strain (as negative control) and strains expressing the whole steviol glycoside production pathway. Cells were grow o/n in YEPD medium. After determining the optical density at 600 nm (respectively 1.00×10^10 cells/mL for the parent strain cultivation and 6.00-8.57×10^9 cells/mL for different Yarrowia lipolitica steviol glycoside producing strains), cells were lysed with 0.5 mm zirconia beads (see example 2 for details). The protein concentration of the thus obtained CFE were determined using Bradford reagent. The actual obtained protein concentrations ranged from 0,453 mg/mL to 0,771 mg/mL.
A dilution series of rebaudiosideA stock solutions was prepared at 0, 500, 1000, 1500, 2000 and 2500 μM in Van Eunen buffer. The CFE's were diluted in Van Eunen buffer to a concentration of 0.125 mg/m L. A 5 mM stock solution of UDP-glucose was prepared.
The reactions were set-up as described in example 2, only now the concentration of the CFE in the final reaction was doubled. Multiple samples were taken to follow the reactions.
In the reactions the final concentrations were: CFE, 0.1 mg/mL; UDP-glucose, 1 mM; rebaudiosideA, at 0, 100, 200, 300, 400, 500 μM. […]

[3] = sweetness relative to sucrose; cited from earlier work
[4] = mildly hypertensive patients; studies suggest; cited from earlier work
[5] = Type II diabetics; studies suggest; cited from earlier work

Compound: C=C1C[C@@]23CC[C@H]4[C@@](C)(CCC[C@@]4(C)C(=O)O[C@@H]4O[C@H](CO)[C@@H](O)[C@H](O)[C@H]4O)[C@@H]2CC[C@]1(O[C@@H]1O[C@H](CO)[C@@H](O)[C@H](O[C@@H]2O[C@H](CO)[C@@H](O)[C@H](O)[C@H]2O)[C@H]1O[C@@H]1O[C@H](CO)[C@@H](O)[C@H](O)[C@H]1O)C3 [rebaudioside A]
- Vmax of rebaudiosideA formation (UGT3-SEQ ID NO: 74; substrate rebaudioside B 0-200 μM, 30° C., calculated with GraphPad 5): 0.0549±0.004 μmol/mg protein/min
- heat and pH stability [1]: heat and pH stable
- glycosylated products detected by LC-MS [2]: two glycosylated products of rebaudioside A were detected

Compound: C=C1C[C@@]23CC[C@H]4[C@@](C)(CCC[C@@]4(C)C(=O)O[C@@H]4O[C@H](CO)[C@@H](O)[C@H](O)[C@H]4O[C@@H]4O[C@H](CO)[C@@H](O)[C@H](O)[C@H]4O)[C@@H]2CC[C@]1(O[C@@H]1O[C@H](CO)[C@@H](O)[C@H](O[C@@H]2O[C@H](CO)[C@@H](O)[C@H](O)[C@H]2O)[C@H]1O[C@@H]1O[C@H](CO)[C@@H](O)[C@H](O)[C@H]1O)C3 [rebaudioside D]
- times sweeter than sucrose [3]: about 200 times

Compound: C=C1C[C@@]23CC[C@H]4[C@@](C)(CCC[C@@]4(C)C(=O)O[C@@H]4O[C@H](CO)[C@@H](O)[C@H](O)[C@H]4O)[C@@H]2CC[C@]1(O[C@@H]1O[C@H](CO)[C@@H](O)[C@H](O)[C@H]1O[C@@H]1O[C@H](CO)[C@@H](O)[C@H](O)[C@H]1O)C3 [stevioside]
- effect on blood pressure [4]: can reduce blood pressure
- heat and pH stability [1]: heat and pH stable
- effect on blood glucose levels [5]: can reduce blood glucose levels

Compound: rebaudioside B
- glycosylation of rebaudiosideB into rebaudiosideA by spent biomass derived material (UGT3-SEQ ID NO: 74; rebaudioside B 50-200 μM, samples 0-30 min, FIG. 2): very efficiently glycosylated
